Here are results for twelve compounds from US10294207B2, “Pyrazole derivatives as TNIK, IKKϵ and TBK1 inhibitor and pharmaceutical composition comprising same” (GREEN CROSS CORPORATION, priority 2015, dated 2019).

Broadly, the IC50 is the concentration that inhibits the measured activity by half. A lower IC50 goes with greater potency.

The target of one experiment is T1, TBK1 (Homo sapiens, UniProt Q9UHD2).
T1 construct: purchased Promega V3991
T1 sequence (Q9UHD2 1-729): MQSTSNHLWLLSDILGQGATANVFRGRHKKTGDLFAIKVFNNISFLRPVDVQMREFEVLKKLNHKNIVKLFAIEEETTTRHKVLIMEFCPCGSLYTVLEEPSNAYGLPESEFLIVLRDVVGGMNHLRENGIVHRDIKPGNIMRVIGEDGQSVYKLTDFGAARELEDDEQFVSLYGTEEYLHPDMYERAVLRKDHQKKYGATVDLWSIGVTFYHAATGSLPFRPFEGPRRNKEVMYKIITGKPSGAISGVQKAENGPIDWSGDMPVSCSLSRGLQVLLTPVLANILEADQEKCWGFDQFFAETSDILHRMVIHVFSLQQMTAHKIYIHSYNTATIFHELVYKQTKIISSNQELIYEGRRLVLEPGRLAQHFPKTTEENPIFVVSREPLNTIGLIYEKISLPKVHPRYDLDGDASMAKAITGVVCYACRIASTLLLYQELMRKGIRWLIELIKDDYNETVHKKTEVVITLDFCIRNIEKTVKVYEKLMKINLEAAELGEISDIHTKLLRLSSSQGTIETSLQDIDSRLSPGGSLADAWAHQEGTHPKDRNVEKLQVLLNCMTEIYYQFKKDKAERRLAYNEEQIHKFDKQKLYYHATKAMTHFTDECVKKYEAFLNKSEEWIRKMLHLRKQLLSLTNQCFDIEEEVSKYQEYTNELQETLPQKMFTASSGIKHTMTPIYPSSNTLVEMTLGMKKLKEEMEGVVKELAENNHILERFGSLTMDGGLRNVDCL
Briefly: TBK1 inhibition, ADP-Glo Kinase Assay. The conditions noted are these: luminometer. The experiment is classed as biochemical. An outline of the steps:
(§1)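 ADP-Glo luminescence reported ADP produced by each kinase, following the kit protocol. Reactions used commercial kinase enzyme systems in buffer of 40 mM Tris (pH 7.5), 20 mM MgCl2 and 0.1 mg/mL BSA.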
(In general: ADP-Glo turns the ADP formed in a reaction into a luminescent signal.)

A further experiment addresses T2, IKKε (Homo sapiens, UniProt Q14164).
T2 construct: purchased Invitrogen PR8031B
T2 sequence (Q14164 1-716): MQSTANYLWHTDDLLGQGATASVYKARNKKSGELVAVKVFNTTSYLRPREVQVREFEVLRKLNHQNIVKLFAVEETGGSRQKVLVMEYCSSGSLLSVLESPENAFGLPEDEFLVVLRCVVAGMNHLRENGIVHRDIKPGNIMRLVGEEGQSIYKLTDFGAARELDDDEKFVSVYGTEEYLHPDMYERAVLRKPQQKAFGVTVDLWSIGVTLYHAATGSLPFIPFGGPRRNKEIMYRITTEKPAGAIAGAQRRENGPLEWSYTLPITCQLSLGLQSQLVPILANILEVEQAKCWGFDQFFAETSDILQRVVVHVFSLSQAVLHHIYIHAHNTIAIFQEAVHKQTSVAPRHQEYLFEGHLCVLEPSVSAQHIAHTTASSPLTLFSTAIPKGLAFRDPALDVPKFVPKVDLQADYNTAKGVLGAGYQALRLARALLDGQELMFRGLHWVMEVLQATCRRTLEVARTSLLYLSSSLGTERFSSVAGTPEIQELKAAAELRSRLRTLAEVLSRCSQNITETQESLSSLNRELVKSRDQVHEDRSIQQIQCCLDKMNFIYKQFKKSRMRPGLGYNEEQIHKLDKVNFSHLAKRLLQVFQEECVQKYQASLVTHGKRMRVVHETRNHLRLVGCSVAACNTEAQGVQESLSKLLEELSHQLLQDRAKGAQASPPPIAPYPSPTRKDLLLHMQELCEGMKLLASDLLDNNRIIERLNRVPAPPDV
Kind of experiment: IKKε inhibition, ADP-Glo Kinase Assay. The experiment is classed as biochemical. The conditions noted are these: luminometer. In a few lines: as §1

For `COc1ccc(C(=O)Nc2n[nH]c3ccc(C(=O)NCc4cccs4)cc23)cc1` [Example 3, 3-(4-Methoxybenzamido)-N-(thiophen-2-ylmethyl)-1H-indazole-5-carboxamide], the IC50 was found to be 0.038 µM against TBK1 and 0.11 µM at IKKε.
As to `O=C(Nc1n[nH]c2ccc(C(=O)NC(c3cccs3)C(F)(F)F)cc12)c1ccc(N2CCOCC2)cc1` (stereo not drawn) [Example 138, 3-(4-Morpholinobenzamido)-N-(2,2,2-trifluoro-1-(thiophen-2-yl)ethyl)-1H-indazole-5-carboxamide], the results for the IC50 on TBK1 and on IKKε were 0.039 µM and 0.12 µM, respectively.
The matching figures for `CN1CCN(c2ccc(C(=O)Nc3n[nH]c4ccc(C(=O)NC(C)(C)c5ccsc5)cc34)cc2)CC1` [Example 145, 3-(4-(4-methylpiperazin-1-yl)benzamido)-N-(2-(thiophen-3-yl)propan-2-yl)-1H-indazole-5-carboxamide]: 0.012 µM and 0.033 µM.
Consider `O=C(NCC1CCCCC1)c1ccc2[nH]nc(NC(=O)c3ccc(N4CCOCC4)cc3)c2c1` [Example 88, N-(Cyclohexylmethyl)-3-(4-morpholinobenzamido)-1H-indazole-5-carboxamide], for which the IC50 was found to be 0.02 µM at TBK1 and 0.11 µM at IKKε.
For `CC[C@@H](NC(=O)c1ccc2[nH]nc(NC(=O)c3ccc(N4CCN(C)CC4)cc3)c2c1)c1ccccc1` [Example 191, (R)-3-(4-(4-Methylpiperazin-1-yl)benzamido)-N-(1-phenylpropyl)-1H-indazole-5-carboxamide], in that order: 0.0013 µM and 0.014 µM.
The matching figures for `O=C(Nc1n[nH]c2ccc(C(=O)NC3(c4cccs4)CC3)cc12)c1ccc(N2CCOCC2)cc1` [Example 48, 3-(4-Morpholinobenzamido)-N-(1-(thiophen-2-yl)cyclopropyl)-1H-indazole-5-carboxamide]: 0.0011 µM and 0.0032 µM.
The matching figures for `CCC(NC(=O)c1ccc2[nH]nc(NC(=O)c3ccc(N4CCC(O)CC4)cc3)c2c1)c1cccs1` (stereo not drawn) [Example 108, 3-(4-(4-Hydroxypiperidin-1-yl)benzamido)-N-(1-(thiophen-2-yl)propyl)-1H-indazole-5-carboxamide]: 0.0028 µM and 0.015 µM.
As to `CC(C)CC(NC(=O)c1ccc2[nH]nc(NC(=O)c3ccc(N4CCN(C)CC4)cc3)c2c1)c1cccs1` (stereo not drawn) [Example 129, N-(3-Methyl-1-(thiophen-2-yl)butyl)-3-(4-(4-methylpiperazin-1-yl)benzamido)-1H-indazole-5-carboxamide], the values for the IC50 at TBK1 and at IKKε were 0.022 µM and 0.054 µM, respectively.
For `CCC(NC(=O)c1ccc2[nH]nc(NC(=O)c3ccc(N4CCC(OC)CC4)cc3)c2c1)c1cccs1` (stereo not drawn) [Example 110, 3-(4-(4-methoxypiperidin-1-yl)benzamido)-N-(1-(thiophen-2-yl)propyl)-1H-indazole-5-carboxamide], in that order: 0.0072 µM and 0.036 µM.
For `Cc1cc(N2CCOCC2)ccc1C(=O)Nc1n[nH]c2ccc(C(=O)NCc3cccs3)cc12` [Example 73, 3-(2-Methyl-4-morpholinobenzamido)-N-(thiophen-2-ylmethyl)-1H-indazole-5-carboxamide], in that order: 0.004 µM and 0.044 µM.
The matching figures for `CC(C)(NC(=O)c1ccc2[nH]nc(NC(=O)c3ccc(F)cc3)c2c1)c1ccccc1` [Example 20, 3-(4-Fluorobenzamido)-N-(2-phenylpropan-2-yl)-1H-indazole-5-carboxamide]: 0.31 µM and 0.35 µM.
Take `Cn1cc(C(=O)Nc2n[nH]c3ccc(C(=O)NCc4cccs4)cc23)cn1` [Example 7, 3-(1-Methyl-1H-pyrazole-4-carboxamido)-N-(thiophen-2-ylmethyl)-1H-indazole-5-carboxamide]: the IC50 on TBK1 was determined as 0.16 µM; at IKKε, 0.25 µM.
